Test systems include ACHN; BT-549; CCRF-CEM; HCC 2998; HOP-62; HOP-92; HT-29; Hs-578T; MDA-MB-435; Malme-3M; NCI-H23; NCI-H522; NCI/ADR-RES; OVCAR-4; RXF 393; SK-MEL-2; SR; U-251; UACC-257; KM-20L2.
What all share (test): NCI tumour cell line growth inhibition, 48 h

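Briefly, cells in 96-well plates were exposed to five compound concentrations for 48 h, and endpoints were estimated by linear interpolation. GI50 is the concentration that inhibits growth by half.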 Calls of active or inactive are those of the source. Cut-off read from the data, not from the text of the source: active = GI50 up to about 1.1 µM and inactive = higher.

Turning to `Cc1cc(C)c2c(=N)c3ccccc3n(CCCCCCCCn3c4ccccc4c(=N)c4c(C)cc(C)nc43)c2n1`, the GI50 in the experiment with ACHN was 1.56 µM (inactive); with BT-549, 1.85 µM (inactive); with CCRF-CEM it was 0.204 µM (active); in the experiment with HCC 2998 it was 0.631 µM (active); in the experiment with HOP-62, 1.23 µM (inactive); in the experiment on HOP-92 it was 1.26 µM (inactive). The GI50 was 0.224 µM (active) in the experiment on HT-29; 1.81 µM (inactive) in the experiment with Hs-578T; 1.54 µM (inactive) with MDA-MB-435; 1.74 µM (inactive) in the experiment on Malme-3M; 1.46 µM (inactive) with NCI-H23; 1.38 µM (inactive) in the experiment with NCI-H522. The GI50 in the experiment with NCI/ADR-RES was 1.6 µM (inactive); with OVCAR-4 it was 0.627 µM (active); in the experiment on RXF 393, 1.32 µM (inactive); in the experiment with SK-MEL-2 it was 1.75 µM (inactive); in the experiment with SR, 0.127 µM (active); in the experiment on U-251 it was 0.553 µM (active). For the same molecule, the GI50 in the experiment with UACC-257 is 1.75 µM (inactive).

`COc1cc(C(C)c2cc3c(cc2OCCN)OCO3)cc(OC)c1OC` (stereo not drawn): the GI50 was > 100 µM (inactive) with ACHN; 35.2 µM (inactive) in the experiment on CCRF-CEM; > 100 µM (inactive) with HCC 2998; > 100 µM (inactive) in the experiment on HOP-62; > 100 µM (inactive) in the experiment with HT-29; 28.8 µM (inactive) with KM-20L2. Moreover, the GI50 is > 100 µM (inactive) with Malme-3M; 31.8 µM (inactive) with NCI-H23; 78.5 µM (inactive) with NCI-H522; > 100 µM (inactive) in the experiment with OVCAR-4; 21.8 µM (inactive) with RXF 393; 64.3 µM (inactive) in the experiment on SK-MEL-2. Moreover, the GI50 with SR is 40.4 µM (inactive); with U-251 it was 42.5 µM (inactive); with UACC-257, 6.7 µM (inactive).

As to `CN(CCc1ccccn1)c1nc(=[N+](C)C)ss1`, the GI50 is > 100 µM (inactive) in the experiment with ACHN; 81.3 µM (inactive) in the experiment with CCRF-CEM; > 100 µM (inactive) with HCC 2998; > 100 µM (inactive) in the experiment on HOP-62; > 100 µM (inactive) in the experiment on HOP-92; 38.5 µM (inactive) in the experiment with HT-29. The GI50 was > 100 µM (inactive) in the experiment with KM-20L2; > 100 µM (inactive) in the experiment on Malme-3M; > 100 µM (inactive) in the experiment with NCI-H23; 8.02 µM (inactive) with NCI-H522; > 100 µM (inactive) in the experiment on OVCAR-4; > 100 µM (inactive) in the experiment on RXF 393. Moreover, the GI50 in the experiment with SK-MEL-2, with U-251 and with UACC-257 was > 100 µM (inactive) each time.

Turning to `CCCCCCCCCC[C@@H](O)[C@@H]1CC[C@H]([C@H]2CC[C@@H]([C@@H](O)CCCCCCCCCC[C@H]3CC(CC(C)=O)C(=O)O3)O2)O1` (stereo partly drawn), the GI50 was 3.07 µM (inactive) in the experiment with CCRF-CEM; 25.5 µM (inactive) in the experiment on HCC 2998; 15.1 µM (inactive) in the experiment on HOP-62; 14.7 µM (inactive) in the experiment with HOP-92; 15.8 µM (inactive) in the experiment on HT-29; 14.6 µM (inactive) with KM-20L2. Further, the GI50 in the experiment with Malme-3M is 3.15 µM (inactive); in the experiment with NCI-H23, < 0.01 µM (active); in the experiment with NCI-H522 it was 0.0324 µM (active); in the experiment on OVCAR-4, < 0.01 µM (active); in the experiment with SK-MEL-2, 14.4 µM (inactive); in the experiment with U-251, 15 µM (inactive). Moreover, in the experiment on UACC-257, the GI50 was 0.955 µM (active).

Regarding `COC(=O)C1=C(C(=O)Nc2cccnc2Cl)N(c2ccc(OC)cc2[N+](=O)[O-])C(c2ccc(C)cc2)=CC1c1ccc(OC)cc1OC` (stereo not drawn), the GI50 is 19.1 µM (inactive) with ACHN; 8.85 µM (inactive) in the experiment on BT-549; 4.53 µM (inactive) with CCRF-CEM; 8.61 µM (inactive) with HCC 2998; 23.3 µM (inactive) in the experiment with HOP-62; 31.1 µM (inactive) with HOP-92. Also, the GI50 is 3.89 µM (inactive) in the experiment on HT-29; 25.3 µM (inactive) in the experiment on Hs-578T; 5.64 µM (inactive) with MDA-MB-435; 12.6 µM (inactive) with Malme-3M; 22.1 µM (inactive) with NCI-H23; 2.59 µM (inactive) with NCI-H522. The GI50 was 17.6 µM (inactive) with NCI/ADR-RES; 33.6 µM (inactive) with OVCAR-4; 3.13 µM (inactive) with RXF 393; 17.9 µM (inactive) with SK-MEL-2; 2.85 µM (inactive) in the experiment on SR; 6.41 µM (inactive) with U-251. The GI50 with UACC-257 was 25.8 µM (inactive).

Turning to `COC(=O)/C(C#N)=C1\CCC(O)N1` (stereo not drawn), the GI50 in the experiment with ACHN, with CCRF-CEM, in the experiment on HCC 2998, with HOP-62, in the experiment on HT-29 and with KM-20L2 was > 100 µM (inactive) throughout. Moreover, the GI50 in the experiment on Malme-3M, with NCI-H23, in the experiment on NCI-H522, in the experiment with OVCAR-4, in the experiment with RXF 393 and with SK-MEL-2 was > 100 µM (inactive) throughout. Besides, the GI50 in the experiment on SR, in the experiment with U-251 and in the experiment with UACC-257 was > 100 µM (inactive) throughout.

Take `C/C(=N/NC(N)=S)C(CN(C)C)C(C1=C(O)c2ccccc2OC1)c1ccccc1` (stereo not drawn): the GI50 in the experiment on ACHN, in the experiment on CCRF-CEM, in the experiment on HCC 2998, in the experiment with HOP-62, in the experiment with HT-29 and in the experiment with KM-20L2 was > 100 µM (inactive) throughout. The GI50 in the experiment on Malme-3M, in the experiment with NCI-H23, in the experiment on NCI-H522, with OVCAR-4, in the experiment with RXF 393 and in the experiment with SK-MEL-2 was > 100 µM (inactive) throughout. Further, the GI50 in the experiment with SR, in the experiment on U-251 and in the experiment on UACC-257 was > 100 µM (inactive) throughout.

Regarding `O=C(O)C1CCC(=O)N1C(=O)C(Cl)c1ccccc1` (stereo not drawn), the GI50 in the experiment on ACHN, in the experiment on CCRF-CEM, in the experiment on HCC 2998, in the experiment with HOP-62, with HOP-92 and in the experiment with HT-29 was > 100 µM (inactive) throughout. Further, the GI50 in the experiment with KM-20L2, in the experiment with Malme-3M, in the experiment on NCI-H23, with NCI-H522, in the experiment on OVCAR-4 and in the experiment with SK-MEL-2 was > 100 µM (inactive) in each case. In addition, the GI50 in the experiment with U-251 and in the experiment with UACC-257 was > 100 µM (inactive) in each case.

For `CC(SC(=S)Nc1cccc(F)c1)C(=O)O` (stereo not drawn), the GI50 was 26.5 µM (inactive) in the experiment on ACHN; 21.2 µM (inactive) in the experiment with CCRF-CEM; 30.9 µM (inactive) with HCC 2998; 18.3 µM (inactive) in the experiment on HOP-62; 30.5 µM (inactive) in the experiment with HT-29; 26.4 µM (inactive) in the experiment with KM-20L2. The GI50 with NCI-H23 is 21 µM (inactive); with NCI-H522, 13.4 µM (inactive); in the experiment with OVCAR-4, > 100 µM (inactive); in the experiment on RXF 393 it was 14.2 µM (inactive); in the experiment on SK-MEL-2 it was 24.1 µM (inactive); with SR, 13.8 µM (inactive). Further, the GI50 was 28.9 µM (inactive) in the experiment with U-251 and 16.6 µM (inactive) in the experiment on UACC-257.

For the molecule `CC/N=C(/C#N)NCC`, the GI50 is > 100 µM (inactive) with ACHN; 75.2 µM (inactive) in the experiment on CCRF-CEM; > 100 µM (inactive) in the experiment with HCC 2998; > 100 µM (inactive) in the experiment with HOP-62; > 100 µM (inactive) with HOP-92; 40.2 µM (inactive) with HT-29. Moreover, the GI50 in the experiment on KM-20L2, with Malme-3M, in the experiment with NCI-H23, with NCI-H522, with OVCAR-4 and in the experiment on SK-MEL-2 was > 100 µM (inactive) each time. The GI50 in the experiment on SR was > 100 µM (inactive); in the experiment with U-251, 96.4 µM (inactive); with UACC-257 it was 55.3 µM (inactive).

For `Cc1nnc2n1N=C(CC(=O)c1ccc(O)cc1O)CN2N`, the GI50 in the experiment with ACHN, with CCRF-CEM, in the experiment with HCC 2998, with HOP-62, in the experiment on HT-29 and in the experiment on KM-20L2 was > 100 µM (inactive) in each case. In addition, the GI50 in the experiment with Malme-3M, in the experiment on NCI-H23, in the experiment on OVCAR-4, in the experiment with RXF 393, in the experiment with SK-MEL-2 and in the experiment with U-251 was > 100 µM (inactive) each time. The GI50 in the experiment with UACC-257 was > 100 µM (inactive).

As for `O=C(NC(=S)Nc1ccccc1)c1ccc([N+](=O)[O-])cc1`, the GI50 in the experiment on ACHN was 83.9 µM (inactive); in the experiment on CCRF-CEM, 31.3 µM (inactive); in the experiment with HCC 2998, > 100 µM (inactive); in the experiment with HOP-62, > 100 µM (inactive); in the experiment with HOP-92, 35.9 µM (inactive); in the experiment with HT-29, 80.9 µM (inactive). The GI50 in the experiment with KM-20L2 is > 100 µM (inactive); in the experiment on Malme-3M it was > 100 µM (inactive); with NCI-H23, 4.8 µM (inactive); with NCI-H522 it was 18.3 µM (inactive); in the experiment on OVCAR-4 it was 3.4 µM (inactive); in the experiment with UACC-257, 60.3 µM (inactive).

With `O=C(O)c1cc2c(cc1S(=O)(=O)O)C1C(C3C2C2(Cl)C(Cl)=C(Cl)C3(Cl)C2(Cl)Cl)C2(Cl)C(Cl)=C(Cl)C1(Cl)C2(Cl)Cl` (stereo not drawn), the GI50 in the experiment on ACHN was > 100 µM (inactive); in the experiment on BT-549, 67 µM (inactive); in the experiment with CCRF-CEM, 0.173 µM (active); with HCC 2998, 20.8 µM (inactive); in the experiment with HOP-62, 26.2 µM (inactive); with HOP-92, 29.2 µM (inactive). Also, the GI50 in the experiment on HT-29 is 21.8 µM (inactive); with Hs-578T it was 45.2 µM (inactive); in the experiment with MDA-MB-435, 41.9 µM (inactive); with Malme-3M, 64.7 µM (inactive); with NCI-H23, 26.4 µM (inactive); in the experiment with NCI-H522, 17.7 µM (inactive). For the same molecule, the GI50 is > 100 µM (inactive) with NCI/ADR-RES; 38.7 µM (inactive) in the experiment with OVCAR-4; 29.2 µM (inactive) in the experiment on RXF 393; 27 µM (inactive) in the experiment with SK-MEL-2; 24.7 µM (inactive) in the experiment with SR; 38.3 µM (inactive) in the experiment on U-251. Further, the GI50 in the experiment with UACC-257 was 90.2 µM (inactive).

Values taken from ChEMBL document CHEMBL1201862, “PubChem BioAssay data set” (2004).
